Measurements from BindingDB's records for patent US12497392 (Hinova Pharmaceuticals, 2025).

Tests used:
[1] = molecular target: T1, CREB-binding protein [1085-1192] (UniProt Q92793); test: Inhibitory Activity of Compounds on the Bromodomain (BRD) of CBP/EP300
T1 construct: 1085-1192
Experimental: (§1) A. Experimental MethodCBP and EP300AlphaScreen Test:1. Prepare 1× concentration of test buffer2. Preparation of compoundThe compound was firstly diluted in a ratio of 1:1000 relative to the final concentration using a Precision automatic sampler (by 3× gradient dilution method):1) 50 μL of compound solution with a storage concentration of 10 mM was transferred to A2 well of a 96-well plate using an Echo automatic sampler.2) 30 μL of DMSO was transferred to well A1, and wells A3 to A12 with Precision™.3) 15 μL solution was transferred from A2 to A3 by Precision, and this operation was sequentially repeated until 15 μL solution was transferred from well A10 to well A11. Thus, a 1:3 gradient dilution was completed.4) The compound plate was centrifuged at a speed of 1000 r/min for one minute.3. Preparation of test plate20 nL of solution was transferred from each concentration well of the compound plate to the test plate using an Echo automatic sampler: from well A1 of the preparation plate to wells A1 and A2 of the test plate, and from well A2 of the preparation plate to wells A3 and A4 of the test plate.4. Binding test of bromodomain (BRD)1) Preparation of 2-fold solution of protein and polypeptideThe protein and polypeptide were dissolved in a 1× concentration of detection buffer.2) 10 μL of protein and polypeptide solution was transferred to each well in columns 3 to 24 in the test plate, and 10 μL of 1× test buffer was transferred to wells in columns 1 to 2 in the test plate as negative control.3) The test plate was centrifuged at a speed of 1000 r/min for one minute.4) The test plate was incubated at room temperature for 15 min.5) A 2-fold receptor and donor solution was prepared by dissolving acceptor and donor beads with one-fold test buffer.6) 2-fold receptor and donor solutions were transferred to the test plate.15 μL of acceptor and donor solution was added and light was avoided.7) The test plate was centrifuged at a speed of 1000 r/min for one minute and then incubated at room temperature for 60 min.5. The Endpoints were Read in EnSpire and Alpha Modes.6. Curve fitting

[2] = molecular target: T2, Histone acetyltransferase p300 [1049-1156] (UniProt Q09472); test: as above
T2 construct: 1049-1156
T2 sequence (Q09472 whole entry): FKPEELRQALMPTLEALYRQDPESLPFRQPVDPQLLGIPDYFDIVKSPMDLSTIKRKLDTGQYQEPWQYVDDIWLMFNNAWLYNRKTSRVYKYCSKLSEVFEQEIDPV
Experimental: as §1

T1 sequence (Q92793 1085-1192): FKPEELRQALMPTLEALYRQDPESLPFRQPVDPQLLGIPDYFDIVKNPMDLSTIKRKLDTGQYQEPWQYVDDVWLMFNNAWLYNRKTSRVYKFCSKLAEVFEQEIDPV

Row | IC50 [1] [nM] | IC50 [2] [nM] | Structure (SMILES)
1 | 4.8 | 2.2 | CO[C@H]1CC[C@H](n2c([C@@H]3CCOCC(=O)N3C3=CC(F)C(F)C=C3)nc3cc(C4C(C)=NOC4C)ccc32)CC1 (stereo partly specified) [US12497392, Compound 106]
2 | 4.7 | 2.7 | CO[C@H]1C[C@@H](n2c([C@@H]3CCOC(=O)N3C3=CC(F)C(F)C=C3)nc3cc(C4C(C)=NOC4C)ccc32)C1 (stereo partly specified) [US12497392, Compound 143]
3 | 22 | 9.6 | COc1cccc(-c2nc3cc(C4C(C)=NOC4C)ccc3n2[C@H]2CC[C@H](OC)CC2)c1C1=CC(F)C(F)C=C1 (stereo partly specified) [US12497392, Compound 141]
